Source: patent publication US12611402B2, “Compounds and their use for the treatment of ALPHA1-antitrypsin deficiency” (CENTESSA PHARMACEUTICALS (UK) LIMITED, priority 2019, dated 2026)

Columns and labels:
human M A1AT = molecular target: T1, human M A1AT (Homo sapiens, UniProt P01009); assay: A1AT cell secretion assay using HEK-M cells (ELISA); assay type: cell-based; conditions: 10 μM, 48 h
T1 construct: expressed in transfected cells; host or cells: HEK-M cells (transfected HEK-EBNA)
Description: (§1) HEK-M cells, a human embryonic kidney cell line stably transfected with M A1AT, were plated into 96 well plates (3.0×10^5 cells/ml with 200 μl of media/well) overnight at 37° C. in a humidified atmosphere containing 5% CO2. Following incubation cells were washed with 200 μl serum-free media three times and media was replaced with serum-free media containing vehicle, 10 μM suberanilohydroxamic acid (SAHA) or a compound of Examples 1-16 in replicates of six for 48 h in a 37° C. incubator in a final volume of 200 μl. At the end of the incubation step the supernatants were removed from the wells, centrifuged at 1000×g at 4° C. for 10 min and were assayed for human A1AT levels by ELISA (Human Serpin A1/α1 antitrypsin duo set ELISA, R& D Systems, DY1268) per manufacturer's instructions.
(§2) Briefly, a 96 well plate was coated with human A1AT capture antibody overnight at room temperature (1:180 dilution from stock, 100 μl final volume/well). The capture antibody was then removed and wells washed three times with 300 μl wash buffer (0.05% Tween 20 in PBS) and then 200 μl reagent diluent ([…]) was incubated in each well for 1 h at room temperature. Diluted samples, standards (125, 250, 500, 1000, 2000, 4000 and 8000 pg/ml A1AT) or blanks were then added to each well in duplicate and the plates were covered with a plate sealer and left at room temperature for 2 h. At the end of the sample incubation step, samples were removed and all wells washed as previously and 100 μl detection antibody (1:180 dilution from stock) was added to each well and incubated for a further 2 h at room temperature. Following incubation with detection antibody, supernatant was removed and wells were washed as previously and 100 μl streptavidin-HRP solution (1:200 dilution from stock) was added to each well for 20 min in the dark. After which, 50 μl stop solution (2M H2SO4) was added and optical density (OD) of each well was read at 450 nm with 570 nm blank subtracted from each well using a microplate reader. A 4 parameter logistic curve was constructed using GraphPad Prism 7 and A1AT concentrations were determined in each sample by interpolation from a standard curve and multiplying by the appropriate dilution factor.
The amount of human M A1AT secreted from transfected HEK-EBNA cells into the media was measured by ELISA. SAHA at 10 μM was used a positive control for all in vitro A1AT secretion experiments.

human Siiyama A1AT = molecular target: T2, human Siiyama A1AT (Homo sapiens, UniProt P01009, S77F); assay: A1AT cell secretion assay using HEK-Siiyama cells (ELISA); assay type: cell-based; conditions: 48 h; for secretion of Siiyama A1AT from HEK-Siiyama cells: 1 or 10 μM
T2 construct: expressed in transfected cells; host or cells: HEK-Siiyama cells (transfected HEK-EBNA)
T2 sequence (P01009 25-418 S77F): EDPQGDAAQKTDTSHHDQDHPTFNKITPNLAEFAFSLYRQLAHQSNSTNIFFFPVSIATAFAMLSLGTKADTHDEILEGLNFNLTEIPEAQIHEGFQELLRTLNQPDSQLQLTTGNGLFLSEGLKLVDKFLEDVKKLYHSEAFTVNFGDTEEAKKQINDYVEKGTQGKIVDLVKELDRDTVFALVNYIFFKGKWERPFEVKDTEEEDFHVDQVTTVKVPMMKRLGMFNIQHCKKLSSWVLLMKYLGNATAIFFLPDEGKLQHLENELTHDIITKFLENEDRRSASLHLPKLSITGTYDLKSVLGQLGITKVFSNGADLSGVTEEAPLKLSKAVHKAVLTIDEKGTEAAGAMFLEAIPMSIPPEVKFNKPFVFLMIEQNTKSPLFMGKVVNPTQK
Description: as §1, with “HEK-Siiyama” for “HEK-M”, “the human Siiyama A1AT gene,” for “M A1AT,”, “Example 1 (at 1 and 10 μM)” for “Examples 1-16”, “eight” for “six”, “A1/α1-antitrypsin” for “A1/α1 antitrypsin”
as §2, with “At the end of the sample incubation step, samples were removed and all wells washed as previously and 100 μl detection antibody (1:180 dilution from stock) was added to each well and incubated for a further 2 h at room temperature. Following incubation with detection antibody, supernatant was removed and wells were washed as previously and 100 μl streptavidin-HRP solution (1:200 dilution from stock) was added to each well for 20 min in the dark.” left out
The amount of human Siiyama A1AT secreted from transfected HEK-EBNA cells into the media was measured by ELISA. […]

human Z A1AT [1] = molecular target: T3, human Z A1AT (Homo sapiens, UniProt P01009, E366K); assay: Circulating human Z A1AT levels in huZ mouse (plasma ELISA); assay type: in vivo; design: expressed in transfected cells; host or cells: transgenic huZ mouse (line Z11.03, C57Bl/6), expressed in liver, measured in plasma; conditions: 5, 15 or 50 mg/kg twice a day by oral gavage for 14 days; plasma days 12, 13 and 14 vs basal
T3 sequence (P01009 25-418 E366K): as the sequence (P01009 25-418 S77F) above, with F53S, E342K counted along it
Description: The huZ mouse (also referred to as the PiZZ mouse) is a transgenic mouse strain that contains multiple copies of the Z variant of the human A1AT gene, developed by two separate groups (Dycaico et al Science (1988) 242:1409-12) and Carlson et al J. Clin Invest (1989) 83:1183-90). HuZ mice are on a C57Bl/6 background and express the human Z A1AT protein in liver tissue. The mice used in this study are from the progeny of Carlson and colleagues (transgenic line Z11.03). […]
HuZ mice (n=4/group; male or female) with basal human Z A1AT plasma levels of between 200-600 μg/ml were treated with either vehicle or the compounds of Examples 1 or 17 at 5, 15 or 50 mg/kg twice a day by oral gavage for 14 consecutive days. […] Human Z A1AT levels in mouse plasma samples were measured by ELISA (Human Serpin A1/α1 antitrypsin duo set ELISA, R& D Systems, DY1268) per manufacturer's instructions.
Briefly, a 96 well plate was coated with human A1AT capture antibody overnight at room temperature (1:180 dilution from stock, 100 μl final volume/well). […] After which, 50 μl stop solution (2M H2SO4) was added and optical density (OD) of each well was read at 450 nm with 570 nm blank subtracted from each well using a microplate reader. […]

human Z A1AT [2] = molecular target: T3, human Z A1AT; assay: A1AT cell secretion assay using HEK-Z cells (ELISA); assay type: cell-based; design: expressed in transfected cells; host or cells: HEK-Z cells (transfected HEK-EBNA); conditions: 48 h, supernatant ELISA
Description: HEK-Z cells, a human embryonic kidney cell line stably transfected with the human Z A1AT gene, were plated into 96 well plates (3.0×10^5 cells/ml with 200 μl of media/well) overnight at 37° C. in a humidified atmosphere containing 5% CO2. Following incubation cells were washed with 200 μl serum-free media three times and media was replaced with treatments in quadruplicate using serum-free media containing vehicle, 10 μM suberanilohydroxamic acid (SAHA) or the compounds of Examples 1-18 (at concentrations of 10, 33, 100 and 333 nM) for 48 h in a 37° C. incubator in a final volume of 200 μl. At the end of the incubation step the supernatants were removed from the wells, centrifuged at 1000×g at 4° C. for 10 min and were assayed for human A1AT levels by ELISA (Human Serpin A1/α1-antitrypsin duo set ELISA, R& D Systems, DY1268) per manufacturer's instructions.
as §2, with “At the end of the sample incubation step, samples were removed and all wells washed as previously and 100 μl detection antibody (1:180 dilution from stock) was added to each well and incubated for a further 2 h at room temperature. Following incubation with detection antibody, supernatant was removed and wells were washed as previously and 100 μl streptavidin-HRP solution (1:200 dilution from stock) was added to each well for 20 min in the dark.” left out
The amount of human A1AT secreted from transfected HEK-EBNA cells into the media was measured by ELISA. […]

T1 sequence (P01009 25-418): as the sequence (P01009 25-418 S77F) above, with F53S counted along it

secretion of human M A1AT from HEK-M cells (human M A1AT)	Compound	Median A1AT increase over vehicle at 300 nM (human Z A1AT [2])	other results
did not lead to an increase	O=C(O)C1CCN(S(=O)(=O)c2cccc3cccnc23)CC1 [Example 1, 1-(Quinolin-8-ylsulfonyl)piperidine-4-carboxylic acid]	–	secretion of Siiyama A1AT from HEK-Siiyama cells (human Siiyama A1AT): did not stimulate secretion; secretion of human Z A1AT compared to baseline levels in huZ mice (human Z A1AT [1]): stimulated secretion
did not lead to an increase	O=C(O)C1CCN(S(=O)(=O)c2cccc(Cl)c2Cl)CC1 [Example 4, 1-((2,3-Dichlorophenyl)sulfonyl)piperidine-4-carboxylic acid]	–	–
did not lead to an increase	O=C(O)C1CCN(S(=O)(=O)c2cccc(Cl)c2)CC1 [Example 3, 1-((3-Chlorophenyl)sulfonyl)piperidine-4-carboxylic acid]	–	–
did not lead to an increase	O=C(O)[C@@H]1CCCN(S(=O)(=O)c2ccccc2C(F)(F)F)C1 [Example 18, (R)-1-((2-(Trifluoromethyl)phenyl)sulfonyl)piperidine-3-carboxylic acid]	–	–
–	O=C(CCCCCCC(=O)Nc1ccccc1)NO [SAHA, suberanilohydroxamic acid, reference compound]	–	Siiyama A1AT secretion from HEK-Siiyama cells (positive control) (human Siiyama A1AT; 10 μM): stimulated an increase
–	O=C(O)[C@H]1CCN(S(=O)(=O)c2ccccc2C(F)(F)F)C1 [Example 15, (S)-1-((2-(Trinfluoromethyl)phenyl)sulfonyl)pyrrolidine-3-carboxylic acid]	230	–
did not lead to an increase	O=C(O)C1CCN(S(=O)(=O)c2ccccc2C(F)(F)F)CC1 [Example 10, 1-((2-(Trifluoromethyl)phenyl)sulfonyl)piperidine-4-carboxylic acid]	–	–
–	O=C(O)C1CCN(S(=O)(=O)c2ccc(C(F)(F)F)cc2)CC1 [Example 12, 1-((4-(Trifluoromethyl)phenyl)sulfonyl)piperidine-4-carboxylic add]	200	–

Compound	secretion of human M A1AT from HEK-M cells (human M A1AT)	Median A1AT increase over vehicle at 300 nM (human Z A1AT [2])	other results
O=C(O)[C@H]1CCCN(S(=O)(=O)c2ccccc2C(F)(F)F)C1 [Example 17, (S)-1-((2-(Trinfluoromethyl)phenyl)sulfonyl)piperidine-3-carboxylic acid]	did not lead to an increase	310	secretion of Siiyama A1AT from HEK-Siiyama cells (human Siiyama A1AT): did not stimulate secretion; secretion of human Z A1AT compared to baseline levels in huZ mice (human Z A1AT [1]): stimulated secretion
